Consider three molecules from patent US10633388B2, “Pyrazolopyrimidone derivatives and methods of use thereof” (Shanghai Hengrui Pharmaceutical Co., Ltd., priority 2013, dated 2020).

For data set [1], the target named is monkey GnRHr (Macaca fascicularis, UniProt A0A2K5WH82). The experiment in a line: Monkey GnRHr inhibitory activity assay, Fluo-4 calcium signal in stably transfected CHO cells. The settings on record: GnRH polypeptide stimulation, read-out: IC50, inhibition of the activity of Monkey GnRHr. The class given is cell-based. The procedure: This assay was used to determine the inhibition effect of the present compounds on the activity of monkey GnRHr protein expressed by monkey GnRHr/CHO stably transfected cell lines.
A mammalian expression vector containing the monkey GnRHr gene was transferred into CHO cells by adding Lipofectamine®LTX reagent containing Plus™. Antibiotics were added the next day for screening to pick out the monoclonal cell lines.
The monkey GnRHr/CHO stably transfected cell lines were inoculated in 96-well plates with an inoculation density of 25,000 cells/well. The culture medium was removed the next day, and loading buffer containing Fluo-4 dye was added to the plate ([…]) and incubated for 30 minutes at 37° C. The plate was moved to room temperature and equilibrated for 10 minutes. Each compound was diluted with DMSO to seven concentration gradients of 100 μM, 10 μM, 1 μM, 0.1 μM, 0.01 μM, 0.001 μM, 0.0001 μM. […] After automated addition of 50 μL of GnRH polypeptide stimulant solution, the value was immediately detected at 494/516 […] by a microplate reader (flexstation 3). IC50 values of the compounds were calculated by software from different fluorescence signals at various corresponding concentrations.
The inhibitory activity of the present compounds on monkey GnRHr was determined by the above assay, and IC50 values are shown in Table 1.

Data set [2] in a line: Rat pharmacokinetics assay. The class given is in vivo. The settings on record: both sexes, Sprague-Dawley, plasma, SD rats, oral 10 mg/kg vs i.v. 5 mg/kg, read-out: Oral Bioavailability F. The procedure: Sprague-Dawley (SD) rats were used as test animals. The plasma concentrations at various times were determined by LC/MS/MS after intragastric administration of compounds of Example 2, Example 3, Example 5, Example 9, Example 10, Example 11, and Example 13, and intravenous administration of the compound of Example 11 to the rats. The pharmacokinetic behavior of the present compounds in rats was studied, and the pharmacokinetic features were evaluated.
Thirty-two (32) healthy adult SD rats (half female and half male) were evenly designated into 8 groups (4 for each group). The animals were purchased from Shanghai Super B&K Laboratory Animal Corp. Ltd (laboratory animal production Certificate No. SCXK (HU)2008-0016).
An appropriate amount of sample was weighed, and added with 0.5% CMC-Na to form a 1 mg/ml suspension upon ultrasonic treatment.
Appropriate amounts of drugs were weighed, and dissolved with 0.5 ml DMSO and 0.5 ml of Tween 80. Saline solution was added to the final volume. […]
The content of the test compound in the plasma of rats after administration of the compound by oral gavage was determined by LC/MS/MS.

A short description of data set [3]: Rabbit pharmacokinetics assay. The class given is in vivo, New Zealand rabbits. The settings on record: rabbits. The procedure:
Rabbits were used as test animals. The plasma concentrations at various times were determined by LC/MS/MS after intragastric administration of the compound of Example 11, and intravenous administration of the compound of Example 11 to rabbits. The pharmacokinetic behavior of the present compound in rabbits was studied, and the pharmacokinetic features were evaluated.
Six (6) healthy New Zealand Rabbits (female) were evenly designated into 2 groups. The animals were purchased from Jie Sijie Corp. Ltd.
An appropriate amount of sample was weighed, and added with 0.5% CMC-Na to form […] suspension upon ultrasonic treatment.
Appropriate amounts of drugs were weighed, and dissolved with 1 ml DMSO and 1 ml of Tween 80. Saline solution was added to the final volume. […]
0.2 ml of blood was sampled before and 5 minutes, 0.25, 0.5, 1, 2, 4, 8, 11, 24 hours after intravenous administration, collected in a heparinized test tube, and centrifuged at 3500 rpm for 10 minutes to separate the plasma, which was stored at −20° C. […] The content of the test compound in the plasma of rabbits after administration of the compound by oral gavage and intravenous injection was determined by LC/MS/MS.

The nature of data set [4]: Beagle pharmacokinetics assay. The class given is in vivo. To be noted: beagles. The procedure:
Beagles were used as test animals. The plasma concentrations at various times were determined by LC/MS/MS after intragastric administration of the compound of Example 11, and intravenous administration of the compound of Example 11 to beagles. The pharmacokinetic behavior of the present compound in beagles was studied, and the pharmacokinetic features were evaluated.
Eight (8) healthy beagles (half female and half male) were evenly designated into 2 groups. The animals were purchased from SuzhouXishan Zhongke Laboratory Animal Corp. Ltd.
An appropriate amount of sample was weighed, and added with 0.5% CMC-Na to form a 1.0 mg/ml suspension upon ultrasonic treatment;
Appropriate amounts of drugs were weighed, and dissolved with 5 ml DMSO and 5 ml of Tween 80. Saline solution was added to the final volume. […]
1.0 ml of blood was sampled from the foreleg vein before, and 0.25, 0.5, 1, 2, 4, 6, 8, 12, and 24 hours after oral administration, collected in a heparinized test tube, and centrifuged at 3500 rpm for 10 minutes to separate the plasma, which was stored at −20° C. […] The content of the test compound in the plasma of beagles after administration of the compound by oral gavage and intravenous injection was determined by LC/MS/MS.

In data set [5] the test system is ectopic endometrium. The experiment in a line: In vivo pharmacodynamics test in rabbit endometriosis model. On the set-up: species or system New Zealand rabbits.
Source text: Fifteen (15) healthy New Zealand rabbits (female) were evenly designated into 3 groups.
Rabbits were adaptive fed and quarantined for seven days, and subcutaneously injected with 30 g/kg of estradiol benzoate once daily for two days before surgery. When the model was established, rabbits were anesthetized with 3% sodium pentobarbital, and laparotomized sterilely. Then, one side of the uterus was separated and ligated with the uterine mesorectum vessel. Then, a section of the uterus was cut off and put into a warm saline dish, and then dissected longitudinally and the myometrium and endometrium were separated. A section of endometrium (about 0.5 cm by 0.5 cm) was seamed to the abdominal wall rich in blood vessels with the intimal surface facing toward the abdominal cavity. Three weeks after endometrium planting, the rabbits were laparotomized to check graft intimal size. […] Each group was administered by oral gavage once a day in a volume of 5 ml/kg, continuously for 28 days after successful modeling. Ultimately, the rabbit was weighed and the volume of ectopic endometrium was measured to evaluate the effect of the present compound on the endometrial activity.
Data set [6] is described as follows: Seven-day toxicokinetic evaluation in rats. The class given is in vivo, SD rats. The procedure: SD rats were used as test animals. The plasma concentration at various times was determined by LC/MS/MS after administration of the compound of Example 11 (SHR147280) by oral gavage for 7 days. The compound toxicity in rodents was preliminarily assessed according to the potential toxicity reaction and severity level of the body.
Twenty-four (24) healthy adult SD rats (half female and half male) were evenly designated into 4 groups (6 for each group). The animals were purchased from Shanghai SLAC Laboratory Animal Corp. Ltd (laboratory animal production Certificate No. SCXK (HU) 2012-0002).
An appropriate amount of sample was accurately weighed, and added with some 0.5% CMC-Na to form an uniform suspension upon ultrasonicator grinding treatment, and then diluted to the final volume. The test sample solutions on day 1 and day 7 were kept for the determination of administration concentration of toxicokinetics.
Repeat oral doses were 80, 240, and 720 mg/kg, and administration concentrations were 8, 24, and 72 mg/ml respectively. The dosing volume was 10 ml/kg once daily for 7 days.
The blood was sampled on day 1 and day 7 after administration with sampling time before, and 1, 2, 4, 8 and 24 hours after oral administration on day 1, as well as before, and 1, 2, 4, 8, 24 and 48 hours after oral administration on day 7. The blood sample was collected in a heparinized test tube, and centrifuged to separate the plasma, which was stored at −20° C. The content of the test compound in the plasma of rats after administration of the compound by oral gavage was determined by LC/MS/MS.

For data set [7] the following is noted: women with endometriosis, 150 or 250 mg qd, vs leuprorelin depot 3.75 mg sc monthly or placebo; cited from earlier work.

monkey GnRHr, sequence (A0A2K5WH82 1-328): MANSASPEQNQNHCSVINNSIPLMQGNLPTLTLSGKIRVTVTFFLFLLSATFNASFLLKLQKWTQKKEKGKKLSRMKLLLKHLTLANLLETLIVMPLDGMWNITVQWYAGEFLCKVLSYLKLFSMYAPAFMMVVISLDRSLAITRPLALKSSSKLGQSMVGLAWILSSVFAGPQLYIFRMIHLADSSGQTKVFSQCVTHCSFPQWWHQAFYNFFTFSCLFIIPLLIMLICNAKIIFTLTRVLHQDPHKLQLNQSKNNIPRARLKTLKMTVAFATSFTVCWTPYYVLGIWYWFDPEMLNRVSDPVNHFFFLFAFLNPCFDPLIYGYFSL

One may read the IC50 as the point on the concentration scale where inhibition reaches its midpoint. Regarding `CONC(=O)Nc1ccc(-n2nc3c(c2CN(C)C)c(=O)n(-c2ccc(OC)nn2)c(=O)n3Cc2c(F)cccc2F)cc1` [Example 11, 1-(4-(7-(2,6-difluorobenzyl)-3-((dimethylamino)methyl)-5-(6-methoxypyridazin-3-yl)-4,6-dioxo-4,5,6,7-tetrahydro-2H-pyrazolo[3,4-d]pyrimidin-2-yl)phenyl)-3-methoxyurea], the IC50 in data set [1] is 78.6 nM. Further, in data set [2], the bioavailability worked out at 76.6%. Further, the bioavailability in data set [3] (female, New Zealand, rabbit, plasma, oral 30 mg/kg vs intravenous injection 5 mg/kg, read-out: Oral Bioavailability F) is 92.9%. In addition, the “Apparent volume of distribution Vz/F” value in data set [3] (oral 30 mg/kg) worked out at 10.719 ± 3.862 L/kg. In data set [4] (oral 5 mg/kg), the “Clearance rate CL/F” value was found to be 14.7 ± 4.2 mL/min/kg. Moreover, in data set [4] (both sexes, beagle, dog, plasma, oral 5 mg/kg vs i.v. 2 mg/kg, read-out: Oral Bioavailability F), the bioavailability was found to be 104%. Moreover, the “inhibition for the ectopic endometrial volume” value in data set [5] (10 mg/kg oral once daily for 4 weeks) was “not obvious”. The “growth of ectopic endometrium” value in data set [5] (30 mg/kg oral once daily for 4 weeks, vs 0.5% CMC-Na control) is on record as “significantly inhibited”. In addition, the Death result in data set [6] (both, SD, rat, in vivo, po, 720 mg/kg, 7 days) is listed as “died on day 7 before dosing”. This molecule also gave a lethal dose in data set [6] (both, SD, rat, in vivo, po, 7 days) of 720 mg/kg. Besides, the “MRT0-∞” value in data set [6] (female, SD, rat, in vivo, po, 240 mg/kg) turned out to be 9.63 h. Also, the “safety window: NOAEL dose ratio (toxicological pharmacokinetic dose/pharmacodynamic dose)” value in data set [6] (rat 240 mg/kg / rabbit 30 mg/kg, preliminary evaluation) is given as 240/30 = 8. The urine indexes result in data set [6] (rat, in vivo) is “no regularly abnormal changes”. For the same molecule, in data set [6] (rat, in vivo, 720 mg/kg), the “Blood biochemistry: ALB (albumin) and ALP (alkaline phosphatase)” value was “significantly decreased”; the “Blood biochemistry: ALT (alanine aminotransferase)” value is “no statistical differences”; the “Blood biochemistry: BUN, CHOL, CREA, TBIL, TP and AST” value is on record as “significantly increased”; the “Hematology: WBC, Neut, Lymph, EO and RET” value was “significantly decreased”. In data set [6] (rat, in vivo, 720 mg/kg), the “Relative organ coefficient of the thymus and spleen” value is “significantly reduced”; the “absolute wet weight of the adrenal gland” value is on record as “significantly increased”; the “absolute wet weight of the thymus, heart, lung and spleen” value is given as “significantly decreased”; the food intake result is “significantly reduced”. For the same molecule, the “relative organ coefficient of the brain, liver, lung, kidney, and adrenal gland” value in data set [6] (rat, in vivo, 720 mg/kg) is “significantly increased”. In addition, in data set [6] (rat, in vivo, po), the “potential toxic target organs” value is “marrow hematopoietic system, thymus, heart, liver, lung, spleen, adrenal gland, ovary, and digestion system”.

For `CNC(=O)Nc1ccc(-n2nc3c(c2CN(C)C)c(=O)n(-c2ccc(OC)nn2)c(=O)n3Cc2c(F)cccc2F)cc1` [Example 9, 1-(4-(7-(2,6-difluorobenzyl)-3-((dimethylamino)methyl)-5-(6-methoxypyridazin-3-yl)-4,6-dioxo-4,5,6,7-tetrahydro-2H-pyrazolo[3,4-d]pyrimidin-2-yl)phenyl)-3-methylurea], the IC50 in data set [1] is 23.2 nM.

For `COc1cccc(-c2c(C)n(Cc3c(F)cccc3C(F)(F)F)c(=O)n(C[C@H](NCCCC(=O)O)c3ccccc3)c2=O)c1F` [elagolix, Elagolix], the serum estrogen level result in data set [7] was “lower than that of the leuprorelin treatment group and placebo group”.
